Assay [1] concerns δ-OR. The settings on record: cited from earlier work.
Assay [2] relates to δ-OR sodium-anchored residue mutants. The assay is described as follows: δ-OR β-arrestin recruitment assay. The settings on record: sodium-anchored residue mutants compared to WT. (In general: Activated receptors often draw arrestin, which recruitment assays turn into a signal.)
Assay [3] shares this test system. The assay is described as follows: cAMP assay. The class given is cell-based, human. (Changes in cAMP serve as a functional read-out for many G protein-coupled receptors.)
Another assay deals with WT δ-OR (Homo sapiens, UniProt P41143). The assay is described as follows: δ-OR β-arrestin recruitment assay.
WT δ-OR, sequence (P41143 whole entry): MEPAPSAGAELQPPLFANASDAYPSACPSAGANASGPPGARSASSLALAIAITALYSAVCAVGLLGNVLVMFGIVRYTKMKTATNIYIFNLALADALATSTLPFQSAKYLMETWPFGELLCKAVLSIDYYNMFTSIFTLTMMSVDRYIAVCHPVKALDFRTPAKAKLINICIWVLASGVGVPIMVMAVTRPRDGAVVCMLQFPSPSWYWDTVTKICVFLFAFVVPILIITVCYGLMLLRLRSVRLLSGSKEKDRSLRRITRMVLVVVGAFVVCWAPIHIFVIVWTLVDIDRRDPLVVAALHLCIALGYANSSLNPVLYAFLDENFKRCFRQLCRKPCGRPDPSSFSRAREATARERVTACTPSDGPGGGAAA
Assay [4] deals with δ-OR (Homo sapiens, UniProt P41143). The assay is described as follows: cAMP assay. Format: cell-based. Particulars: receptors transfected with 15 µg DNA.
δ-OR (Homo sapiens, UniProt P41143), sequence (P41143 whole entry): as above
The next assay deals with δ-OR WT (HEK293) (Homo sapiens, UniProt P41143). The class given is binding.
δ-OR WT (HEK293), sequence (P41143 whole entry): as above
The next assay addresses δ-OR D95N (HEK293) (Homo sapiens, UniProt P41143, D95N).
A further assay deals with δ-OR N131A (HEK293) (Homo sapiens, UniProt P41143, N131A). The class given is binding.
δ-OR N131A (HEK293), sequence (P41143 whole entry N131A): as the sequence (P41143 whole entry) above, with N131A counted along it
For another assay, the target named is δ-OR D95A (HEK293) (Homo sapiens, UniProt P41143, D95A).
δ-OR D95A (HEK293), sequence (P41143 whole entry D95A): as the sequence (P41143 whole entry) above, with D95A counted along it
[5] abbreviates: cooperativity of sodium with DADLE.

δ-OR D95N (HEK293), sequence (P41143 whole entry D95N): as the sequence (P41143 whole entry) above, with D95N counted along it

In the case of `C=CCN1C[C@H](C)N([C@H](c2ccc(C(=O)N(CC)CC)cc2)c2cccc(O)c2)C[C@H]1C`, in the assay on δ-OR [1], the “effect of sodium ions on binding to the receptor” value was “minimally affected”. The β-arrestin signaling entry in assay [2] is given as “low to moderate reduction”. Besides, in assay [3] (sodium-anchored residue mutants compared to WT), the G-protein signaling entry is recorded as “low to moderate reduction”.
Turning to `O=C1/C(=C/c2ccccc2)C[C@@]2(O)[C@H]3Cc4ccc(O)c5c4[C@@]2(CCN3CC2CC2)[C@H]1O5` [BNTX], the “agonist activity at the β-arrestin pathway” value on WT δ-OR is reported as “no apparent agonist activity”.
Same read-out and setting: the value for `Oc1ccc2c3c1O[C@H]1c4oc5ccccc5c4C[C@@]4(O)[C@@H](C2)N(CC2CC2)CC[C@]314` [naltriben] was “no apparent agonist activity”.
Regarding `Oc1ccc2c3c1O[C@H]1c4[nH]c5ccccc5c4C[C@@]4(O)[C@@H](C2)N(CC2CC2)CC[C@]314` [naltrindole], the “activity at Gαi signaling” value at δ-OR [4] was “weak partial agonist activity”. Further, the “agonist activity at the β-arrestin pathway” value on WT δ-OR was “no apparent agonist activity”.
Turning to `[Na+]` [sodium], the “Hill Coefficient” value on δ-OR WT (HEK293) is given as 0.56 ± 0.16; on δ-OR D95N (HEK293), “NAE”; on δ-OR N131A (HEK293) it was “NAE”; on δ-OR D95A (HEK293), “NAE”. Besides, the “Na+ pKB ± SEM” value on δ-OR WT (HEK293) (allosteric model, orthosteric ligand DADLE) is reported as 1.88 ± 0.10; on δ-OR D95N (HEK293), “NAE”; at δ-OR N131A (HEK293) it was “NAE”; on δ-OR D95A (HEK293), “NAE”. Also, the “pα ± SEM” value on δ-OR WT (HEK293) (setting [5]) is 1.93 ± 0.34; on δ-OR D95N (HEK293), “NAE”; on δ-OR N131A (HEK293) it was “NAE”; on δ-OR D95A (HEK293) it was “NAE”. Further, the α at δ-OR WT (HEK293) (setting [5]) was 0.012; on δ-OR D95N (HEK293) it was “NAE”; on δ-OR N131A (HEK293), “NAE”; on δ-OR D95A (HEK293) it was “NAE”. For the same compound, the Kb at δ-OR WT (HEK293) (read-out: Na+ KB, allosteric model, orthosteric ligand DADLE) amounted to 13.3 mM. Moreover, the “Na+ KB” value at δ-OR D95N (HEK293), on δ-OR N131A (HEK293) and on δ-OR D95A (HEK293) was “NAE” throughout.
In the case of DADLE, the “G protein agonist efficacy” value in [3] (Asp95Ala, Asn310Ala and Asn314Ala mutants) is “low to moderate reduction”.

(Values after PMC3931418 (Nature, 2014).)
